Biological target: T1, sortase A (SrtA) (Streptococcus mutans, UniProt Q8CM62)
T1 construct: His-tagged recombinant SrtA from a 741 bp DNA fragment (pET28SmsrtA), S. mutans ATCC 25175
Assay: FRET assay with purified SrtA and fluorescent peptide Abz-LPATG-Dap(Dnp)-NH2; supported by mutants with reduced inhibition
Format: biochemical

T1 sequence (Q8CM62 entry or part of it): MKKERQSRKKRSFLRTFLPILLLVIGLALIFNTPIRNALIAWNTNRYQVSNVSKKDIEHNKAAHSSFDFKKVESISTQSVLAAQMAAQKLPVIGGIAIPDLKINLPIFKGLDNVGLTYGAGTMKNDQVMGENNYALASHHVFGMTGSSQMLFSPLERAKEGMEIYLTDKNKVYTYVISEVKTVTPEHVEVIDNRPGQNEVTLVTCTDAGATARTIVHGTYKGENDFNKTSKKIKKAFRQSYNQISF

How did the IC50 turn out when C[C@@H]1O[C@@H](O[C@H]2C(=O)c3c(O)cc(O)cc3O[C@@H]2c2ccc(O)c(O)c2)[C@H](O)[C@H](O)[C@H]1O [astilbin] was run?
The IC50 was 16.7 µM.
